In paper PMC10004267, “Resveratrol, a New Allosteric Effector of Hemoglobin, Enhances Oxygen Supply Efficiency and Improves Adaption to Acute Severe Hypoxia” (Molecules, 2023):

Key:
[1] = target: T1, hemoglobin of adult (HbA) (Homo sapiens, UniProt P68871); assay: SPR (OpenSPR, HbA immobilized), control compound; assay type: binding
T1 construct: gene HBB; HbA tetramer purified from human whole blood; with hemoglobin subunit alpha (HBA1)

[2] = target: T2, hemoglobin of adult (HbA) (Homo sapiens, UniProt P68871+P69905); assay: SPR (OpenSPR, HbA immobilized on COOH chip, one-to-one model); supported by thermal shift (Tm1) and P50 shift; assay type: binding
T2 construct: gene HBA1; HbA tetramer purified from human whole blood; with hemoglobin subunit beta (HBB)
T2 sequence (P69905 2-142): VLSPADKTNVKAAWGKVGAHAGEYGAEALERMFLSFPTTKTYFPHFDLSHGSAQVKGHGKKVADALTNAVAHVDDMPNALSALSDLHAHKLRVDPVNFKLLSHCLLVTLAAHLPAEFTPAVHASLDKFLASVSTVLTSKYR
T2 sequence (P68871 2-147): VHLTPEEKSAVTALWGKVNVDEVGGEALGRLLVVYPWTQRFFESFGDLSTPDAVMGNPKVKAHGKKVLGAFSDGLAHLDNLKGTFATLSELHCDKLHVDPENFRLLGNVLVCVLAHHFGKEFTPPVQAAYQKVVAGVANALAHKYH

T1 sequence (P68871 2-147): as above
T1 sequence (P69905 2-142 partner): as the sequence (P69905 2-142) above

Kd [1] [µM] | Compound | Kd [2] [µM]
462 | O=C(O)C(COP(=O)(O)O)OP(=O)(O)O (centres unmarked) [2,3-DPG, 2,3-Diphosphoglycerate] | –
– | Oc1ccc(/C=C/c2cc(O)cc(O)c2)cc1 [RSV, 3,4′,5-trihydroxy-trans-stilbene] | 48.6
